# Experimental data reported in patent publication US3940382A, “1,2'-Di-N-substituted kanamycin B compounds” (Zaidan Hojin Biseibutsu Kagaku Kenkyu Kai, priority 1973, dated 1976).
# Where two headings read alike, the source gives them in different places.
# Assays:
# Format in all cases: cell-based
# [1] = tested on: Staphylococcus aureus Smith; assay: MIC, serial dilution on nutrient agar; conditions: read-out: Minimum Inhibitory Concentrations
# [2] = tested on: Staphylococcus aureus FDA 209P; assay: MIC, serial dilution on nutrient agar; conditions: FDA209P, read-out: Minimum Inhibitory Concentrations
# [3] = tested on: Staphylococcus aureus Terejima; assay: MIC, serial dilution on nutrient agar; conditions: read-out: Minimum Inhibitory Concentrations
# Sarcina lutea PCI 1001 = assay: MIC, serial dilution on nutrient agar; conditions: Micrococcus luteus, read-out: Minimum Inhibitory Concentrations
# Bacillus anthracis = assay: microbe, parasite or virus in culture; conditions: 18 h, read-out: Minimum Inhibitory Concentrations
# [4] = tested on: Bacillus subtilis PCI 219; assay: MIC, serial dilution on nutrient agar; conditions: read-out: Minimum Inhibitory Concentrations
# [5] = tested on: Bacillus subtilis NRRL B-558; assay: MIC, serial dilution on nutrient agar; conditions: read-out: Minimum Inhibitory Concentrations
# [6] = tested on: Bacillus cereus ATCC 10702; assay: MIC, serial dilution on nutrient agar; conditions: read-out: Minimum Inhibitory Concentrations
# [7] = tested on: Corynebacterium bovis 1810; assay: MIC, serial dilution on nutrient agar; conditions: read-out: Minimum Inhibitory Concentrations
# [8] = tested on: Mycobacterium smegmatis ATCC 607; assay: MIC, serial dilution on nutrient agar; conditions: Mycolicibacterium smegmatis, read-out: Minimum Inhibitory Concentrations
# [9] = tested on: Shigella dysenteriae JS 11910; assay: MIC, serial dilution on nutrient agar; conditions: JS11910, 18 h, read-out: Minimum Inhibitory Concentrations
# [10] = tested on: Escherichia coli K-12 ML 1630; assay: MIC, serial dilution on nutrient agar; conditions: K12ML1630, 37°C, 18 hours, read-out: Minimum Inhibitory Concentrations
# Method: (§1) The minimum inhibitory concentrations (mcg/ml) of 1,2'-di-N-[(S)-4-amino-2-hydroxybutyryl]-kanamycin B (abbreviated as 1,2'-AHB-KMB), 1,2'-di-N-[(S)-4-amino-2-hydroxybutyryl]-3',4'-dideoxykanamycin B (abbreviated as 1,2'-AHB-DKB), 1,2'-di-N-DL-isoseryl-3',4'-dideoxykanamycin B (abbreviated as 1,2'-IS-DKB) and 1,2'-di-N-DL-isoseryl-kanamycin B (abbreviated as 1,2'-IS-KMB) against various microorganisms were determined according to serial dilution method using nutrient agar medium at 37°C, the estimation being effected after 18 hours incubation. For comparison, the minimum inhibitory concentrations of kanamycin B (abbreviated as KMB) and 3',4'-dideoxykanamycin B (abbreviated as DKB) were also determined in the same manner as mentioned above.
# [11] = tested on: Shigella flexneri 4b JS 11811; assay: MIC, serial dilution on nutrient agar; conditions: 4BJS11811, 37°C, 18 hours, read-out: Minimum Inhibitory Concentrations
# Method: as §1
# Shigella sonnei JS 11746 = assay: MIC, serial dilution on nutrient agar; conditions: JS11746, 37°C, 18 hours, read-out: Minimum Inhibitory Concentrations
# Method: as §1
# Salmonella typhosa T-63 = assay: MIC, serial dilution on nutrient agar; conditions: Salmonella enterica, 18 h, read-out: Minimum Inhibitory Concentrations
# [12] = tested on: Salmonella enteritidis 1891; assay: MIC, serial dilution on nutrient agar; conditions: Salmonella enterica, read-out: Minimum Inhibitory Concentrations
# Proteus vulgaris OX 19 = assay: MIC, serial dilution on nutrient agar; conditions: read-out: Minimum Inhibitory Concentrations
# [13] = tested on: Klebsiella pneumoniae PCI 602; assay: MIC, serial dilution on nutrient agar; conditions: read-out: Minimum Inhibitory Concentrations
# [14] = tested on: Klebsiella pneumoniae 22 -3038; assay: MIC, serial dilution on nutrient agar; conditions: read-out: Minimum Inhibitory Concentrations
# Escherichia coli NIHJ = assay: MIC, serial dilution on nutrient agar; conditions: read-out: Minimum Inhibitory Concentrations
# Escherichia coli K-12 = assay: MIC, serial dilution on nutrient agar; conditions: read-out: Minimum Inhibitory Concentrations
# [15] = tested on: Escherichia coli K-12 ML 1629; assay: MIC, serial dilution on nutrient agar; conditions: read-out: Minimum Inhibitory Concentrations
# [16] = tested on: Escherichia coli K-12 ML 1410; assay: MIC, serial dilution on nutrient agar; conditions: read-out: Minimum Inhibitory Concentrations
# [17] = tested on: Escherichia coli K-12 ML 1410 R81; assay: MIC, serial dilution on nutrient agar; conditions: 18 h, read-out: Minimum Inhibitory Concentrations
# [18] = tested on: Escherichia coli LA290 R55; assay: MIC, serial dilution on nutrient agar; conditions: LA290R55, 18 h, read-out: Minimum Inhibitory Concentrations
# [19] = tested on: Escherichia coli LA290 R56; assay: MIC, serial dilution on nutrient agar; conditions: LA290R56, 18 h, read-out: Minimum Inhibitory Concentrations
# [20] = tested on: Escherichia coli LA290 R64; assay: MIC, serial dilution on nutrient agar; conditions: LA290R64, 18 h, read-out: Minimum Inhibitory Concentrations
# Escherichia coli W677 = assay: MIC, serial dilution on nutrient agar; conditions: read-out: Minimum Inhibitory Concentrations
# [21] = tested on: Escherichia coli JR66/W677; assay: MIC, serial dilution on nutrient agar; conditions: Escherichia coli, JR66/W677, 18 h, read-out: Minimum Inhibitory Concentrations
# [22] = tested on: Pseudomonas aeruginosa A3; assay: MIC, serial dilution on nutrient agar; conditions: read-out: Minimum Inhibitory Concentrations
# [23] = tested on: Pseudomonas aeruginosa No.12; assay: MIC, serial dilution on nutrient agar; conditions: Pseudomonas aeruginosa, NO.12, 18 h, read-out: Minimum Inhibitory Concentrations
# [24] = tested on: Pseudomonas aeruginosa TI-13; assay: MIC, serial dilution on nutrient agar; conditions: read-out: Minimum Inhibitory Concentrations
# [25] = tested on: Pseudomonas aeruginosa GN315; assay: MIC, serial dilution on nutrient agar; conditions: read-out: Minimum Inhibitory Concentrations
# [26] = tested on: Pseudomonas aeruginosa 99; assay: MIC, serial dilution on nutrient agar; conditions: read-out: Minimum Inhibitory Concentrations
compound,measurement,setting,value
"NCC[C@H](O)C(=O)N[C@@H]1CC[C@@H](CN)O[C@@H]1O[C@H]1[C@H](O)[C@@H](O[C@H]2O[C@H](CO)[C@@H](O)[C@H](N)[C@H]2O)[C@H](NC(=O)[C@@H](O)CCN)C[C@@H]1N [1,2'-AHB-DKB, 1,2'-di-N-[(S)-4-amino-2-hydroxybutyryl]-3',4'-dideoxykanamycin B]",MIC,"[1]; Staphylococcus aureus Smith, nutrient agar, 37°C, 18 hours",0.2 µg/mL
same,MIC,"[2]; Staphylococcus aureus FDA 209P, nutrient agar, 37°C, 18 hours",0.78 µg/mL
same,MIC,"[3]; Staphylococcus aureus Terejima, nutrient agar, 37°C, 18 hours",< 0.2 µg/mL
same,MIC,"Sarcina lutea PCI 1001; PCI1001, Sarcina lutea PCI 1001, nutrient agar, 37°C, 18 hours",1.56 µg/mL
same,MIC,Bacillus anthracis,< 0.2 µg/mL
same,MIC,"[4]; PCI219, Bacillus subtilis PCI 219, nutrient agar, 37°C, 18 hours",< 0.2 µg/mL
same,MIC,"[5]; NRRLB558, Bacillus subtilis NRRL B-558, nutrient agar, 37°C, 18 hours",0.2 µg/mL
same,MIC,"[6]; ATCC10702, Bacillus cereus ATCC 10702, nutrient agar, 37°C, 18 hours",1.56 µg/mL
same,MIC,"[7]; Corynebacterium bovis 1810, nutrient agar, 37°C, 18 hours",0.78 µg/mL
same,MIC,"[8]; ATCC607, Mycobacterium smegmatis ATCC 607, nutrient agar, 37°C, 18 hours",0.2 µg/mL
same,MIC,[9],6.25 µg/mL
same,MIC,[10],3.13 µg/mL
same,MIC,[11],6.25 µg/mL
same,MIC,Shigella sonnei JS 11746,6.25 µg/mL
same,MIC,Salmonella typhosa T-63,0.78 µg/mL
same,MIC,"[12]; Salmonella enteritidis 1891, nutrient agar, 37°C, 18 hours",1.56 µg/mL
same,MIC,"Proteus vulgaris OX 19; OX19, Proteus vulgaris OX 19, nutrient agar, 37°C, 18 hours",0.78 µg/mL
same,MIC,"[13]; PCI602, Klebsiella pneumoniae PCI 602, nutrient agar, 37°C, 18 hours",0.78 µg/mL
same,MIC,"[14]; 223038, Klebsiella pneumoniae 22 -3038, nutrient agar, 37°C, 18 hours",1.56 µg/mL
same,MIC,"Escherichia coli NIHJ; Escherichia coli NIHJ, nutrient agar, 37°C, 18 hours",3.13 µg/mL
same,MIC,"Escherichia coli K-12; K12, Escherichia coli K-12, nutrient agar, 37°C, 18 hours",1.56 µg/mL
same,MIC,"[15]; K12ML1629, Escherichia coli K-12 ML 1629, nutrient agar, 37°C, 18 hours",3.13 µg/mL
same,MIC,"[16]; K12ML1410, Escherichia coli K-12 ML 1410, nutrient agar, 37°C, 18 hours",3.13 µg/mL
same,MIC,[17],1.56 µg/mL
same,MIC,[18],0.78 µg/mL
same,MIC,[19],0.78 µg/mL
same,MIC,[20],0.78 µg/mL
same,MIC,"Escherichia coli W677; Escherichia coli W677, nutrient agar, 37°C, 18 hours",1.56 µg/mL
same,MIC,[21],6.25 µg/mL
same,MIC,"[22]; Pseudomonas aeruginosa A3, nutrient agar, 37°C, 18 hours",25 µg/mL
same,MIC,[23],6.25 µg/mL
same,MIC,"[24]; TI13, Pseudomonas aeruginosa TI-13, nutrient agar, 37°C, 18 hours",12.5 µg/mL
same,MIC,"[25]; Pseudomonas aeruginosa GN315, nutrient agar, 37°C, 18 hours",100 µg/mL
same,MIC,"[26]; Pseudomonas aeruginosa 99, nutrient agar, 37°C, 18 hours",50 µg/mL
"NC[C@H]1O[C@H](O[C@H]2[C@H](O)[C@@H](O[C@H]3O[C@H](CO)[C@@H](O)[C@H](N)[C@H]3O)[C@H](N)C[C@@H]2N)[C@H](N)[C@@H](O)[C@@H]1O [KMB, kanamycin B]",MIC,"[1]; Staphylococcus aureus, 18 h",0.39 µg/mL
same,MIC,"[2]; Staphylococcus aureus, 18 h",< 0.2 µg/mL
same,MIC,"[3]; Staphylococcus aureus, 18 h",< 0.2 µg/mL
same,MIC,"Sarcina lutea PCI 1001; PCI1001, 18 h",1.56 µg/mL
same,MIC,Bacillus anthracis,< 0.2 µg/mL
same,MIC,"[4]; Bacillus subtilis, PCI219, 18 h",< 0.2 µg/mL
same,MIC,"[5]; Bacillus subtilis, NRRLB558, 18 h",< 0.2 µg/mL
same,MIC,"[6]; Bacillus cereus, ATCC10702, 18 h",0.78 µg/mL
same,MIC,"[7]; Corynebacterium bovis, 1810, 18 h",1.56 µg/mL
same,MIC,"[8]; ATCC607, 18 h",0.78 µg/mL
same,MIC,[9],3.13 µg/mL
same,MIC,[10],> 100 µg/mL
same,MIC,[11],3.13 µg/mL
same,MIC,Shigella sonnei JS 11746,1.56 µg/mL
same,MIC,Salmonella typhosa T-63,0.2 µg/mL
same,MIC,"[12]; ENTERITIDIS, 18 h",1.56 µg/mL
same,MIC,"Proteus vulgaris OX 19; Proteus vulgaris, OX19, 18 h",0.78 µg/mL
same,MIC,"[13]; Klebsiella pneumoniae, PCI602, 18 h",0.78 µg/mL
same,MIC,"[14]; Klebsiella pneumoniae, 223038, 18 h",> 100 µg/mL
same,MIC,"Escherichia coli NIHJ; Escherichia coli, 18 h",0.78 µg/mL
same,MIC,"Escherichia coli K-12; Escherichia coli, K12, 18 h",0.78 µg/mL
same,MIC,"[15]; Escherichia coli, K12ML1629, 18 h",> 100 µg/mL
same,MIC,"[16]; Escherichia coli, K12ML1410, 18 h",0.78 µg/mL
same,MIC,[17],> 100 µg/mL
same,MIC,[18],12.5 µg/mL
same,MIC,[19],3.13 µg/mL
same,MIC,[20],3.13 µg/mL
same,MIC,"Escherichia coli W677; Escherichia coli, W677, 18 h",0.39 µg/mL
same,MIC,[21],> 100 µg/mL
same,MIC,"[22]; Pseudomonas aeruginosa, A3, 18 h",50 µg/mL
same,MIC,[23],12.5 µg/mL
same,MIC,"[24]; Pseudomonas aeruginosa, TI13, 18 h",100 µg/mL
same,MIC,"[25]; Pseudomonas aeruginosa, GN315, 18 h",> 100 µg/mL
same,MIC,"[26]; Pseudomonas aeruginosa, 99, 18 h",> 100 µg/mL
